The record followed here is US20240025875A1, “A COMPOUND AS A THYROID HORMONE BETA RECEPTOR AGONIST AND USE THEREOF” (SUNSHINE LAKE PHARMA CO., LTD., priority 2020, published 2024).

By EC50 is commonly meant the concentration that produces a half-maximal response. Lower therefore signals an effect from little substance. The term AUC(0-inf) denotes total exposure, with the tail of the curve extrapolated. As a reminder, the AUC(0-t) is exposure summed from dosing to a finite time, without extrapolation to infinity. Higher therefore signals high exposure. In general, Cmax refers to the peak of the concentration-time curve. As usually defined, the clearance is a measure of how efficiently the substance is removed, as volume per time. Lower therefore signals inefficient removal. A word on the half-life: it is the time needed for the level to fall by half in the phase considered.

Structures are written as SMILES.

The target of one data set is T1, TRα (Homo sapiens, UniProt P10827).
T1 construct: 5 μL of 4×TR beta/alfa-LBD; purchased Invitrogen PV4687
T1 sequence (P10827 163-410 isoform P10827-2 limits assumed, other chains not shown): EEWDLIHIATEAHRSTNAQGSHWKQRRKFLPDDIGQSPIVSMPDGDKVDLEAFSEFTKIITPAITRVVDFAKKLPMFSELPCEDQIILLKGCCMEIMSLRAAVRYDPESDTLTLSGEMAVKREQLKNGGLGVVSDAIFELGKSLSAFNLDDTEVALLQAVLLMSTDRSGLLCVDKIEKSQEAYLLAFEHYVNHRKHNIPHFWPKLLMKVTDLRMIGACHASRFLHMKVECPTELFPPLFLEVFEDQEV
Description: LanthaScreen TR-FRET Thyroid Receptor alfa Coactivator Assay (in vitro binding activity). The note with it: TR alfa-LBD. The gist of the method: (§1)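 TR-FRET coactivator recruitment used GST-tagged TRα or TRβ ligand-binding domain with fluorescein-SRC2-2 peptide and Tb anti-GST antibody (0.4 μM and 8 nM in the added mix). Compound was run as 10-point 3-fold dilutions (2% DMSO solution) for 1 h at room temperature in the dark. EC50 came from the 520/495 nm emission ratio.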
In general terms: Time-resolved FRET reads energy transfer from a long-lived donor to a nearby acceptor.

The target of another data set is T2, TRβ (Homo sapiens, UniProt P10828).
T2 construct: 5 μL of 4×TR beta/alfa-LBD; purchased Invitrogen PV4686
T2 sequence (P10828 217-461 limits assumed): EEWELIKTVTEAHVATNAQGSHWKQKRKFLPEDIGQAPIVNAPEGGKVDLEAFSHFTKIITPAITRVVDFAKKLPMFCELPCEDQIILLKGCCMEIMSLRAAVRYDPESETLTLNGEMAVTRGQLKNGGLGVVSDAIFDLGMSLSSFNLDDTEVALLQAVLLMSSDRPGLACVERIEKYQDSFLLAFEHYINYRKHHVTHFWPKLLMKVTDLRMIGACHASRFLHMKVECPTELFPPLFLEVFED
Description: LanthaScreen TR-FRET Thyroid Receptor beta Coactivator Assay (in vitro binding activity). Particulars: TR beta-LBD. The gist of the method: as §1

Data set [1] can be described thus: Pharmacokinetic determination in SD rats (i.v. and i.g.). The class given is in vivo. Particulars: for AUC(0-inf) / AUC(0-t) / Cmax / clearance / half-life / Vd: male, Sprague-Dawley (SD), rat, plasma; for Vd: read-out: VSS. The source says: Test purposes: The following method was used to determine the pharmacokinetics of the compound of the present invention.
Test Materials: • Experimental reagents and test samples used: Propranolol (internal standard), methanol, ammonium acetate, K2EDTA (potassium ethylenediaminetetraacetic acid), formic acid, acetonitrile MTBE (methyl tert-butyl ether). KolliphorHS15 (macrogol 12 hydroxystearate), DMSO (dimethyl sulfoxide) are commercially available • SD rats: male, 180-220 g, 7-8 weeks old, purchased from Human Slack Experimental Animal Co., Ltd.
Each test sample prepared was completely dissolved in a mixture of 5% DMSO+5% KolliphorHS 15+90% Saline according solubility property thereof.
Samples were processed by liquid-liquid extraction, chromatographically separated, quantitatively analyzed by multiple reaction ion monitoring (MRM) on a triple quadrupole tandem mass spectrometer, and the concentration of the results was calculated by instrument quantitative software.
30 μL of plasma sample was precisely pipetted, added with 250 μL of internal standard, and vortexed to mix thoroughly. Plasma samples was extracted once with 1 mL of MTBE, centrifuged at 13,000 rpm for 2 min at 4° C. 800 μL of the supernatant was sucked out, evaporated to dryness in a 96-well nitrogen blower, and the residue was reconstituted with 150 μL of methanol/water (v/v=50/50), vortexed to mix, and injected with an injection volume of 8 μL.
LC/MS/MS method was used to determine the content of the test compound in rat plasma after administration of different compounds.
Pharmacokinetic parameters were calculated using a noncompartmental method by WinNonLin 6.1 software.

For `O=C1c2ccc(Oc3c(Cl)cc(-n4ncc(=O)[nH]c4=O)cc3Cl)cc2CCN1Cc1ccc(Cl)cc1` [Example 37, 2-(3,5-dichloro-4-((2-(4-chlorobenzyl)-1-oxo-1,2,3,4-tetrahydroisoquinolin-6-yl)oxy)phenyl)-1,2,4-triazine-3,5(2H,4H)-dione], the EC50 on TRα is over 100 µM. Further, the midpoint of the response on TRβ, the EC50, lay at 0.043 µM. The same compound had a F in data set [1] (ig, 5 mg/kg) of 116.3%. For the same compound, in data set [1] (iv, 1 mg/kg), the area under the curve AUC(0-inf) came to 21100 ng·h/mL, the AUC(0-t) was determined as 20900 ng·h/mL, the Cmax is 4200 ng/mL and the clearance turned out to be 0.789 mL/min/kg. Further, in data set [1] (iv, 1 mg/kg), the half-life is 3.61 h and the Vd was found to be 0.212 L/kg. In addition, in data set [1] (po, ig, 5 mg/kg), the AUC(0-inf) amounted to 122000 ng·h/mL, the area under the curve AUC(0-t) is 121000 ng·h/mL, the concentration peaked (Cmax) at 12300 ng/mL and the half-life is 3.5 h.

For the compound `O=C1c2ccc(Oc3c(Cl)cc(-n4ncc(=O)[nH]c4=O)cc3Cl)cc2CCN1c1cccc(F)c1` [Example 42, 2-(3,5-dichloro-4-((2-(3-fluorophenyl)-1-oxo-1,2,3,4-tetrahydroisoquinolin-6-yl)oxy)phenyl)-1,2,4-triazine-3,5(2H,4H)-dione], at TRα, the half-maximal effective concentration (EC50) was over 100 µM. The midpoint of the response at TRβ, the EC50, lay at 0.016 µM. This compound also registered a F in data set [1] (ig, 5 mg/kg) of 134.8%. For the same compound, in data set [1] (iv, 1 mg/kg), the AUC(0-inf) amounted to 1960 ng·h/mL, the AUC(0-t) was found to be 1860 ng·h/mL, the maximum concentration (Cmax) was determined as 4340 ng/mL and the clearance came out at 8.49 mL/min/kg. Further, in data set [1] (iv, 1 mg/kg), the half-life was 2.97 h and the Vd turned out to be 0.658 L/kg. In data set [1] (po, ig, 5 mg/kg), the total exposure AUC(0-inf) amounted to 13200 ng·h/mL, the AUC(0-t) is 12700 ng·h/mL, the Cmax amounted to 7700 ng/mL and the half-life is 2.53 h.

With `O=C1c2ccc(Oc3c(Cl)cc(-n4ncc(=O)[nH]c4=O)cc3Cl)cc2CCN1Cc1cccc(OC(F)(F)F)c1` [Example 43, 2-(3,5-dichloro-4-((1-oxo-2-(3-(trifluoromethoxy)benzyl)-1,2,3,4-tetrahydroisoquinolin-6-yl)oxy)phenyl)-1,2,4-triazine-3,5(2H,4H)-dione], the half-maximal effective concentration (EC50) at TRα was over 100 µM. At TRβ, this compound had a concentration giving a half-maximal response (EC50) of 0.031 µM. Also, in data set [1] (ig, 5 mg/kg), the F came to 68.4%. In data set [1] (iv, 1 mg/kg), this compound had an AUC(0-inf) of 47700 ng·h/mL, an AUC(0-t) of 39800 ng·h/mL, a maximum concentration (Cmax) of 3410 ng/mL and a clearance of 0.349 mL/min/kg. Further, in data set [1] (iv, 1 mg/kg), the half-life was 9.52 h and the Vd turned out to be 0.26 L/kg. In addition, in data set [1] (po, ig, 5 mg/kg), the area under the curve AUC(0-inf) amounted to 212000 ng·h/mL, the AUC(0-t) stood at 134000 ng·h/mL, the peak level (Cmax) was 8120 ng/mL and the half-life was 15.7 h.

For the compound `O=C1c2ccc(Oc3c(Cl)cc(-n4ncc(=O)[nH]c4=O)cc3Cl)cc2CCN1c1ccccc1F` [Example 44, 2-(3,5-dichloro-4-((2-(2-fluorophenyl)-1-oxo-1,2,3,4-tetrahydroisoquinolin-6-yl)oxy)phenyl)-1,2,4-triazine-3,5(2H,4H)-dione], the EC50 on TRα was over 100 µM. In addition, at TRβ, the response was half-maximal at 0.0097 µM (EC50). The compound further came in with a F in data set [1] (ig, 5 mg/kg) of 133.3%. In data set [1] (iv, 1 mg/kg), this compound registered a total exposure AUC(0-inf) of 2150 ng·h/mL, an AUC(0-t) of 2110 ng·h/mL, a Cmax of 5430 ng/mL and a clearance of 7.74 mL/min/kg. In data set [1] (iv, 1 mg/kg), the half-life was 2.11 h and the Vd came to 0.4 L/kg. For the same compound, in data set [1] (po, ig, 5 mg/kg), the AUC(0-inf) was 14300 ng·h/mL, the AUC(0-t) is 13900 ng·h/mL, the Cmax was 9030 ng/mL and the half-life is 1.64 h.

The compound `O=C1c2ccc(Oc3c(Cl)cc(-n4ncc(=O)[nH]c4=O)cc3Cl)cc2CCN1Cc1cccnc1` [Example 45, 2-(3,5-dichloro-4-((1-oxo-2-(pyridin-3-ylmethyl)-1,2,3,4-tetrahydroisoquinolin-6-yl)oxy)phenyl)-1,2,4-triazine-3,5(2H,4H)-dione] registered a concentration for a half-maximal effect (EC50) at TRα of over 100 µM. Besides, on TRβ, the EC50 was found to be 0.061 µM. Moreover, the F in data set [1] (ig, 5 mg/kg) was determined as 163.9%. Besides, in data set [1] (iv, 1 mg/kg), the total exposure AUC(0-inf) is 2510 ng·h/mL, the exposure AUC(0-t) is 2460 ng·h/mL, the maximum concentration (Cmax) amounted to 1780 ng/mL and the clearance came out at 6.65 mL/min/kg. Further, in data set [1] (iv, 1 mg/kg), the half-life was 1.15 h and the Vd was 0.57 L/kg. For the same compound, in data set [1] (po, ig, 5 mg/kg), the area under the curve AUC(0-inf) amounted to 20600 ng·h/mL, the exposure AUC(0-t) came to 20300 ng·h/mL, the peak level (Cmax) was 5320 ng/mL and the half-life is 4.14 h.

`O=C1c2ccc(Oc3c(Cl)cc(-n4ncc(=O)[nH]c4=O)cc3Cl)cc2CCN1Cc1ccccn1` [Example 46, 2-(3,5-dichloro-4-((1-oxo-2-(pyridin-2-ylmethyl)-1,2,3,4-tetrahydroisoquinolin-6-yl)oxy)phenyl)-1,2,4-triazine-3,5(2H,4H)-dione]: at TRα, the concentration for a half-maximal effect (EC50) is over 100 µM. This compound also gave an EC50 on TRβ of 0.035 µM. The F in data set [1] (ig, 5 mg/kg) worked out at 126.5%. Besides, in data set [1] (iv, 1 mg/kg), the AUC(0-inf) amounted to 10000 ng·h/mL, the AUC(0-t) worked out at 9810 ng·h/mL, the Cmax was found to be 4160 ng/mL and the clearance worked out at 1.66 mL/min/kg. Also, in data set [1] (iv, 1 mg/kg), the half-life is 4.24 h and the Vd worked out at 0.424 L/kg. Besides, in data set [1] (po, ig, 5 mg/kg), the AUC(0-inf) is 633000 ng·h/mL, the AUC(0-t) was 61900 ng·h/mL, the maximum concentration (Cmax) turned out to be 6410 ng/mL and the half-life is 5.93 h.

Compound `O=C1c2ccc(Oc3c(Cl)cc(-n4ncc(=O)[nH]c4=O)cc3Cl)cc2CCN1c1cccnc1` [Example 49, 2-(3,5-dichloro-4-((1-oxo-2-(pyridin-3-yl)-1,2,3,4-tetrahydroisoquinolin-6-yl)oxy)phenyl)-1,2,4-triazine-3,5(2H,4H)-dione] registered an EC50 at TRα of over 100 µM. Further, the EC50 on TRβ is 0.107 µM. The same compound yielded a F in data set [1] (ig, 5 mg/kg) of 138.3%. In data set [1] (iv, 1 mg/kg), this compound came in with a total exposure AUC(0-inf) of 3730 ng·h/mL, an area under the curve AUC(0-t) of 3580 ng·h/mL, a Cmax of 5300 ng/mL and a clearance of 4.46 mL/min/kg. Moreover, in data set [1] (iv, 1 mg/kg), the half-life is 1.14 h and the Vd came to 0.306 L/kg. Also, in data set [1] (po, ig, 5 mg/kg), the AUC(0-inf) stood at 25800 ng·h/mL, the exposure AUC(0-t) is 25300 ng·h/mL, the Cmax was determined as 9680 ng/mL and the half-life is 3.63 h.
